From ChEMBL document CHEMBL5647687, “Beta-adrenoceptor control of peroxidase synthesis in nasal glands” (Ann Otol Rhinol Laryngol, 1990) come the findings set out here.

Type in all cases: functional, organism-based
The subject of assay [1] is Felis catus. The assay can be described thus: Increase in granule content containing the peroxidase reaction product discharged into acinar lumen in cat at 0.3 mg/kg, iv after 20 mins.
For assay [2], the system named is Felis catus. The assay is described as follows: Reduction in secretion rate of electron dense peroxidase-positive granules in cat at 0.3 mg/kg, iv after 60 mins.
Assay [3] relates to Felis catus. The assay can be described thus: Effect on peroxidase reaction product in r-ER, Golgi complex, and secretory granules in acinar cells of cat at 0.3 mg/kg, iv dosed 10 mins before dosing of 7.3 mg/kg, iv propranolol and measured after 20 mins post ligand dose.
Assay [4] relates to Felis catus. The assay can be described thus: Effect on peroxidase reaction product in r-ER, Golgi complex, and secretory granules in acinar cells of cat at 0.3 mg/kg, iv dosed 10 mins before dosing of 7.3 mg/kg, iv propranolol and measured after 60 mins post ligand dose.
The test system of assay [5] is Felis catus. The assay is described as follows: Effect on activity of peroxidase in acinar cells of cat at 0.3 mg/kg, iv dosed 10 mins before dosing of 7.3 mg/kg, iv propranolol and measured after 20 mins post ligand dose.
The subject of assay [6] is Felis catus. The assay can be described thus: Effect on activity of peroxidase in acinar cells of cat at 0.3 mg/kg, iv dosed 10 mins before dosing of 7.3 mg/kg, iv propranolol and measured after 60 mins post ligand dose.
Assay [7] has as its system Felis catus. The assay is described as follows: Effect on distribution of peroxidase in acinar cells of cat at 0.3 mg/kg, iv dosed 10 mins before dosing of 7.3 mg/kg, iv propranolol and measured after 20 mins post ligand dose by electron microscopy.
The test system of assay [8] is Felis catus. The assay can be described thus: Effect on distribution of peroxidase in acinar cells of cat at 0.3 mg/kg, iv dosed 10 mins before dosing of 7.3 mg/kg, iv propranolol and measured after 60 mins post ligand dose by electron microscopy.
For assay [9], the system named is Felis catus. The assay can be described thus: Effect on localization of peroxidase in rough endoplasmic reticulum of cat at 7.3 mg/kg, iv administered as single dose measured after 30 mins by electron microscopy.
In assay [10] the test system is Felis catus. The assay is described as follows: Effect on activity of peroxidase in cat acinar cells at 7.3 mg/kg, iv administered as single dose measured after 30 mins.
Assay [11] deals with Felis catus. The assay can be described thus: Effect on localization of peroxidase in rough golgi complex of cat at 7.3 mg/kg, iv administered as single dose measured after 30 mins by electron microscopy. The note with it: Golgi body.
The subject of assay [12] is Felis catus. The assay is described as follows: Effect on localization of peroxidase in secretory granules of cat at 7.3 mg/kg, iv administered as single dose measured after 30 mins by electron microscopy.
In assay [13] the test system is Felis catus. The assay is described as follows: Reduction in peroxidase-positive secretory granules in cat at 7.3 mg/kg, iv administered as single dose measured after 5 hrs by electron microscopy.
Assay [14] concerns Felis catus. The assay is described as follows: Increase in electron-lucent secretory granules in cat at 7.3 mg/kg, iv administered as single dose measured after 5 hrs by electron microscopy.
Assay [15] concerns Felis catus. The assay is described as follows: Increase in secretory granules without peroxidase activity in cat at 7.3 mg/kg, iv administered as single dose measured after 9 hrs by electron microscopy.
The test system of assay [16] is Felis catus. The assay is described as follows: Decrease in Peroxidase activity in acinar cells of the nasal glands of cat at 8 mg/kg, iv dosed over 7 hours.
In assay [17] the test system is Felis catus. The assay can be described thus: Effect on activity of peroxidase in cat in rough golgi complex at 7.3 mg/kg, iv administered as single dose measured after 5 hrs. The note with it: Golgi body.
For assay [18], the system named is Felis catus. The assay can be described thus: Effect on activity of peroxidase in cat in rough golgi complex at 7.3 mg/kg, iv administered as single dose measured after 9 hrs. The note with it: Golgi body.
Assay [19] has as its system Felis catus. The assay is described as follows: Effect on activity of peroxidase in cat rough endoplasmic reticulum at 7.3 mg/kg, iv administered as single dose measured after 5 hrs.
In assay [20] the test system is Felis catus. The assay can be described thus: Effect on activity of peroxidase in cat rough endoplasmic reticulum at 7.3 mg/kg, iv administered as single dose measured after 9 hrs.
The test system of assay [21] is Felis catus. The assay is described as follows: Decrease in Peroxidase activity in rough endoplasmic reticulum of cat at 8 mg/kg, iv dosed over 7 hours.

Each structure is given as a SMILES string. Active and inactive are the calls of the source. The rule behind the calls is not given here.

As to `CC(C)NCC(O)c1ccc(O)c(O)c1` (stereo unspecified), the outcome in the assay with Felis catus [1] and in the assay on Felis catus [2] was Active. The result in the assay with Felis catus [3], in the assay on Felis catus [4], in the assay with Felis catus [5], in the assay on Felis catus [6], in the assay on Felis catus [7] and in the assay on Felis catus [8] was inactive.

For `CC(C)NCC(O)COc1cccc2ccccc12` (stereo unspecified), the result in the assay on Felis catus [9], with Felis catus [10], in the assay on Felis catus [11], in the assay on Felis catus [12], in the assay with Felis catus [17] and in the assay with Felis catus [18] was inactive. Also, the result with Felis catus [19] and in the assay with Felis catus [20] was inactive. In addition, the result in the assay on Felis catus [13], with Felis catus [14], in the assay on Felis catus [15], with Felis catus [16] and with Felis catus [21] was Active.
